This is an account of results in ChEMBL document CHEMBL5465560, “Selectivity Literature for EUbOPEN Chemogenomic Library” (2024).

In assay [1] the target is T1, Serine/threonine-protein kinase PLK4 (Homo sapiens) (UniProt O00444).
T1 sequence (whole entry): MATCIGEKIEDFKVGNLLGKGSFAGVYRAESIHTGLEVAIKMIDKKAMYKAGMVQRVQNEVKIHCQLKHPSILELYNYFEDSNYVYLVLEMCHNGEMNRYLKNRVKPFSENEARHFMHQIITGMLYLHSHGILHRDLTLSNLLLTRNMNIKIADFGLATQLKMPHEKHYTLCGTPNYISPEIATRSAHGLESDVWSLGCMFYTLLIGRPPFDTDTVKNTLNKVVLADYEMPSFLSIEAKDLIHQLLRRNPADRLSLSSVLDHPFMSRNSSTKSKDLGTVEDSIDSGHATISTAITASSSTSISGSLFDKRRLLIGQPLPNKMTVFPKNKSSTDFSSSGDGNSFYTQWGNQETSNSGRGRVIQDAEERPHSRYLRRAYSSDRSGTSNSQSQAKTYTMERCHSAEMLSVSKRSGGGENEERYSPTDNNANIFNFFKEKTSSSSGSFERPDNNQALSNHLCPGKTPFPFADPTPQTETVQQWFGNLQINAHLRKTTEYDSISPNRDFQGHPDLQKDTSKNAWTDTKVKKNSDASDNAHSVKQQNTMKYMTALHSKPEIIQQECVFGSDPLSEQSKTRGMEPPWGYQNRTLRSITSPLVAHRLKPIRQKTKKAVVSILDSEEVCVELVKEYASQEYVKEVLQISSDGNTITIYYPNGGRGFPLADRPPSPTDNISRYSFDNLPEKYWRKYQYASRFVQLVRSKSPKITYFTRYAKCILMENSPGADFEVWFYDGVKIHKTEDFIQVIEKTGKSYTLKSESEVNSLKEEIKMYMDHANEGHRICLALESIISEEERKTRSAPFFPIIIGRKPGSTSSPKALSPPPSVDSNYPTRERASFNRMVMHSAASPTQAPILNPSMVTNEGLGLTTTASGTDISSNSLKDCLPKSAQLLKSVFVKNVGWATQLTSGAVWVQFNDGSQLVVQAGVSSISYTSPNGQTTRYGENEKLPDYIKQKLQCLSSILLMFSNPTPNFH
Nature of the assay: Selectivity interaction (KinomeScan (DiscoverX)) EUB0000655a PLK4. The following applies: at 10 µM.

In assay [2] the target is T2, Mitogen-activated protein kinase kinase kinase 19 (Homo sapiens) (UniProt Q56UN5).
T2 sequence (whole entry): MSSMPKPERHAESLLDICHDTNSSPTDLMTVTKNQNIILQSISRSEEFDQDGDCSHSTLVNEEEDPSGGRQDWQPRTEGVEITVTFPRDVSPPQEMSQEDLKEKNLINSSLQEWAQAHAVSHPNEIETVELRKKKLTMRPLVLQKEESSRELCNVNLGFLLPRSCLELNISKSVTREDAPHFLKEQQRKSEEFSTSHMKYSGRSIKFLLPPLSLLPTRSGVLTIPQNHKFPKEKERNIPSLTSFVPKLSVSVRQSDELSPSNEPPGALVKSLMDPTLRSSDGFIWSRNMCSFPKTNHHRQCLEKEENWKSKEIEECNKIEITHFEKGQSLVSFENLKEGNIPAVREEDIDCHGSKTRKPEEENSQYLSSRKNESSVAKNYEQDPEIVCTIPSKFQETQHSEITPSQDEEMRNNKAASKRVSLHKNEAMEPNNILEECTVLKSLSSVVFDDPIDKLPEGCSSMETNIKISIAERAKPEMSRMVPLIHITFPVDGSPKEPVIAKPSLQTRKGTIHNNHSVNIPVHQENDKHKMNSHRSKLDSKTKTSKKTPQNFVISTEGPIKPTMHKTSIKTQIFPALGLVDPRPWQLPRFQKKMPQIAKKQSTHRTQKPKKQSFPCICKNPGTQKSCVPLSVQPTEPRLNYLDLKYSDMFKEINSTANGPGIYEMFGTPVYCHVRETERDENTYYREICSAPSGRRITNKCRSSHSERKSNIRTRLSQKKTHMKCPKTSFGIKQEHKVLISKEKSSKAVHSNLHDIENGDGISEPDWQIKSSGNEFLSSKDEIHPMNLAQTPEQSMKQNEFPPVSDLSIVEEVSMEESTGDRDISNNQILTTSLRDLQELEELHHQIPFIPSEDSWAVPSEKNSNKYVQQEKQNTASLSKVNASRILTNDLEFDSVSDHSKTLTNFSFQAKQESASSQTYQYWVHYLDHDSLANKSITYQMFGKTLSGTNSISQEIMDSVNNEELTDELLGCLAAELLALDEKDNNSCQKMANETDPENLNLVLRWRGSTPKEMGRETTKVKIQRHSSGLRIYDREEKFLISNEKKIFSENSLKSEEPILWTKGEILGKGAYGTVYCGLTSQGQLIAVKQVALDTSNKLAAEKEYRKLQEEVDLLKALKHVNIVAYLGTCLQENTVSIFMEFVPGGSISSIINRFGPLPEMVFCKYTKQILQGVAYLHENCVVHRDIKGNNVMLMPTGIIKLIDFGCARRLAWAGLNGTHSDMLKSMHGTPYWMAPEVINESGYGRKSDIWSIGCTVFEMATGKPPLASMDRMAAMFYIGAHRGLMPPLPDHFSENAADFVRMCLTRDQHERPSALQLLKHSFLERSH
Nature of the assay: Selectivity interaction (KinomeScan (DiscoverX)) EUB0000655a MAP3K19. The following applies: at 10 µM.

The target in the next assay is Focal adhesion kinase 1 (Homo sapiens, UniProt Q05397). Briefly: Selectivity interaction (ActivX KiNativ screen (kinase selectivity in THP-1 cell lysates)) EUB0000639a PTK2. The assay is classed as subcellular. The conditions noted are these: lysate, at 5 µM.
Sequence of Focal adhesion kinase 1 (Q05397 2-1052 limits assumed): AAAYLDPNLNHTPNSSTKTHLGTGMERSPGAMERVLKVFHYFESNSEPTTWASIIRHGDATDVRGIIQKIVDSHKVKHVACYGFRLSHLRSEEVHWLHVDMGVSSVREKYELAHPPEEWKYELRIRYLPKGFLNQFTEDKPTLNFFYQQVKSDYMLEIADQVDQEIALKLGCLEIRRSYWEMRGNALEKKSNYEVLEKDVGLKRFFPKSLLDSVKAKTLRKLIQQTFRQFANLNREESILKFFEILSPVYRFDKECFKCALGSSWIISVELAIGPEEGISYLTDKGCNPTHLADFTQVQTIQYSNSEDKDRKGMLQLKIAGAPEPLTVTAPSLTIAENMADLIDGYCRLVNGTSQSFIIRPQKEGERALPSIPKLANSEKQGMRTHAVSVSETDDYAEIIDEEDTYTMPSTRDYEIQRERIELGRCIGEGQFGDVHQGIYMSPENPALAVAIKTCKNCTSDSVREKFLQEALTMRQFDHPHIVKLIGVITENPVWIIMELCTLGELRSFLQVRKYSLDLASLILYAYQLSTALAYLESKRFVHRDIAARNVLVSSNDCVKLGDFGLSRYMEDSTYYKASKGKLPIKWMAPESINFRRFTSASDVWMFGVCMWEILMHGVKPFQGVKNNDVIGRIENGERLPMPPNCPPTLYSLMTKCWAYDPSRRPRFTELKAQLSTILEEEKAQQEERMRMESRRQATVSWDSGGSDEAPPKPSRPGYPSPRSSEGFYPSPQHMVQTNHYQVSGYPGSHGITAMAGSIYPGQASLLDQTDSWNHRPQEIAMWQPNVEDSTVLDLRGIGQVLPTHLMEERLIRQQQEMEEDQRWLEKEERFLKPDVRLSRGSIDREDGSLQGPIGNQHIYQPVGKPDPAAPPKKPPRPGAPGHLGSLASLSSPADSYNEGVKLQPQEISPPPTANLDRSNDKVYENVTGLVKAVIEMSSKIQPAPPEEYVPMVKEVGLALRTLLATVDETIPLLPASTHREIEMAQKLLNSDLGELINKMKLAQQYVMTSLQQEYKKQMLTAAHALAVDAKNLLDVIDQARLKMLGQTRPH
The target in assay [3] is T3, cGMP-dependent protein kinase 1 (Homo sapiens) (UniProt Q13976).
T3 sequence (whole entry): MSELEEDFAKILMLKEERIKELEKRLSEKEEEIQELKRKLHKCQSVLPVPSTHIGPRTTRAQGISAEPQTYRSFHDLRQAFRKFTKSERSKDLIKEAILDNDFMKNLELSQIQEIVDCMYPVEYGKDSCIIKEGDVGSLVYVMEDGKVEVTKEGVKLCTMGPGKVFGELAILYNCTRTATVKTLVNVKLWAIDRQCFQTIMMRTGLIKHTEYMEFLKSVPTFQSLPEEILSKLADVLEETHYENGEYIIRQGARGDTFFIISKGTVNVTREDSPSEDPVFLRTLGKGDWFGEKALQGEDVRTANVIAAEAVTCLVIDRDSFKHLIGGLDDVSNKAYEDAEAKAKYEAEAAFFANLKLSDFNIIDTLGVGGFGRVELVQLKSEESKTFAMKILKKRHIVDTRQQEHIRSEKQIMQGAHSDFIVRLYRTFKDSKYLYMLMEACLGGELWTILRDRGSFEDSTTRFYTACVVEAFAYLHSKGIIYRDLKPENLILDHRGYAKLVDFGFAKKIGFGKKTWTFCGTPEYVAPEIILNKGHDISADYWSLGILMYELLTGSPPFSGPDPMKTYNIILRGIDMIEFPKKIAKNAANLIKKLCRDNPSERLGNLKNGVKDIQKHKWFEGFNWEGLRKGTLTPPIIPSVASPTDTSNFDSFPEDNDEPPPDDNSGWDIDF
Briefly: Selectivity interaction (KinomeScan (DiscoverX)) EUB0001619a PRKG1. The conditions noted are these: at 1 µM.

Consider `CN(C)CCOc1ccc(-c2nc(-c3ccncc3)c(-c3ccc4c(c3)CC/C4=N\O)[nH]2)cc1`, for which the % of control in assay [1] came to 83%; in assay [2], 30%.
As to `CC[C@@H]1[C@H](F)C(=O)N[C@@H]1COc1nccc2cc(C(N)=O)c(OC)cc12` [ZIMLOVISERTIB], on Focal adhesion kinase 1, the % of inhibition is -9.4%.
Molecule `N#Cc1cccc(-c2c[nH]c3ncnc(N4CCOCC4)c23)c1` returned a % of control in assay [3] of 99%.
